According to publication PMC10447463, “Data-mining unveils structure–property–activity correlation of viral infectivity enhancing self-assembling peptides” (Nature Communications, 2023):
Where two headings read alike, the source gives them in different places.

Tests used:
[1] = Turbidity, derived count rate of scattered light; assay type: physicochemical; conditions: for Count Rate: derived count rate of scattered light (turbidity); for Log10 Count Rate: turbidity, derived count rate of scattered light, data of Figure 2D
[2] = Turbidity, derived count rate of scattered light; assay type: physicochemical; conditions: for Count Rate / kcps: derived count rate of scattered light at 633 nm, 173°, from zeta-potential measurement, 0.1 mg/mL in 1 mM KCl after 1 d at 1 mg/mL in PBS, turbidity / microscopic aggregation, mean of triplicate
How it was run: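 One-day room-temperature aggregation at 1 mg/mL in PBS (pH 7.4) preceded measurement; samples then went into 1 mM KCl. Triplicates per sample, two independent experiments averaged.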

[3] = Zeta-potential measurement; assay type: physicochemical
How it was run: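 Dissolve peptide from DMSO (10 mg/mL stock) into PBS pH 7.4 to 1 mg/mL. Incubate 1 d, RT. Dilute in 1 mM KCl just before reading. Derive zeta potential from mobility (Smoluchowski).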

[4] = assay type: physicochemical; set-up: key to Fibril / Fibril Formation / TEM 2cat / Fibril: 1 = fibrils present; 0 non-fibrillar structures; conditions: for Fibril / Fibril Formation: 1 mg/mL, uranyl acetate stain, qualitative
[5] = Log10 of derived count rate of scattered light (turbidity)
[6] = turbidity, Log10 of derived count rate of scattered light, Figure 3A source data
[7] = turbidity, log10 of derived count rate of scattered light
[8] = zeta-potential of peptide, source data of Figure 2C
[9] = zeta-potential of the peptide assemblies, mean, Figure 3A source data
[10] = FigS12 panel A, fibril category by TEM
[11] = TEM, 1 = fibrils present, 0 = non-fibrillar
[12] = TEM, 1 = fibrils present, 0 = non-fibrillar structures
[13] = category: fibrils present or non-fibrillar

Substance | Count Rate [1] | Log10 Count Rate [1] | Log10 Count Rate [2, 5] | Count Rate / kcps [2] | Log10 Count Rate [2, 6] | Log10 Count Rate [2, 7] | Zeta-Pot. [3] | Zeta-Potential / mV [3, 8] | Zeta-Potential / mV [3, 9] | TEM 2cat ([4]; Fig S10 panel D) | TEM 2cat [4, 10] | Fibril ([4]; FigS12 panel B, TEM) | Fibril / Fibril Formation ([4]; TEM) | Fibril [4, 11] | Fibril [4, 12] | TEM 2cat [4, 13] | also measured
MKFKFQF | 124 | 2.0933 | 2.0933 | 124 kcps | 2.0933 | 2.0933 | -3.133 | -0.4917 mV | -3.13 mV | 1 | 1 | 1 | 1 | 1 | 1 |  | Fibril ([4]; Fig S10 panel E): 1
MKFM | 130.8 | 2.1165 | 2.1165 | 131 kcps | 2.1165 | 2.1165 | -16 | -9.2 mV | -16 mV | 0 | 0 | 0 | 0 | 0 | 0 |  | 
NMWQKAKAQA | 242.2 | 2.384 | 2.384 | 242 kcps | 2.384 | 2.384 | -5.56 | -4.582 mV | -5.56 mV | 1 | 1 | 1 | 1 | 1 | 1 |  | 
NMWQKFKFQF | 14045.43333 | 4.148 | 4.148 | 14045 kcps | 4.148 | 4.148 | 9.56 | 10.63 mV | 9.56 mV | 1 |  |  | 1 | 1 | 1 | 1 | 
NMWQKIKIQI | 10024.06667 | 4.001 | 4.001 | 10024 kcps | 4.001 | 4.001 |  | 7.36 mV | 8.26 mV | 1 |  |  | 1 | 1 | 1 | 1 | Zeta-Pot. ([3]; zeta potential of peptide assemblies): 8.26
NMWQKIKQII | 982.4 | 2.992 | 2.992 | 982 kcps | 2.992 | 2.992 | -0.213 | 2.325 mV | -0.21 mV | 0 | 0 | 0 | 0 | 0 | 0 |  | 
NMWQKVGTPL | 26.97 | 1.431 | 1.431 | 27 kcps | 1.431 | 1.431 | -9.62 | -5.334 mV | -9.62 mV | 0 | 0 | 0 | 0 | 0 | 0 |  | 
PPFHPPPFHP | 59.13 | 1.772 | 1.772 | 59 kcps | 1.772 | 1.772 | -15.8 | -9.582 mV | -15.8 mV | 0 | 0 | 0 | 0 | 0 | 0 |  | 
QCKAKAQA | 1319.1 | 3.12 | 3.12 | 1319 kcps | 3.12 | 3.12 | 0.674 | 0.4918 mV | 0.67 mV | 0 | 0 | 0 | 0 | 0 | 0 |  | 
QCKFKFQF | 2669 | 3.426 | 3.426 | 2669 kcps | 3.426 | 3.426 | 12.2 | 13.3 mV | 12.2 mV | 1 |  |  | 1 | 1 | 1 | 1 | 
QCKFKFQFNM | 3669.6 | 3.565 | 3.565 | 3670 kcps | 3.565 | 3.565 | 15.7 | 16.1 mV | 15.7 mV | 1 |  |  | 1 | 1 | 1 | 1 | Fibril ([4]; Fig S10 panel E): 1
QCKFKFQFNMWQ | 1208 | 3.082 | 3.082 | 1208 kcps | 3.082 | 3.082 | 21.07 | 16.85 mV | 21.07 mV | 1 |  |  | 1 | 1 | 1 | 1 | Fibril ([4]; Fig S10 panel E): 1
QCKIKIQI | 12426.83333 | 4.094 | 4.094 | 12427 kcps | 4.094 | 4.094 | 9.52 | 10.99 mV | 9.52 mV | 1 |  |  | 1 | 1 | 1 | 1 | 
QCKIKIQINMWQ | 8271 | 3.918 | 3.918 | 8271 kcps | 3.918 | 3.918 | 11.73 | 11.38 mV | 11.73 mV | 1 |  |  | 1 | 1 | 1 | 1 | Count Rate ([2]; T0, mean of n = 3): 9558.2 kcps; Count Rate ([2]; T2m, mean of n = 3): 6927 kcps; Log10 Count Rate ([2]; logarithm of count rate in kcps): 3.918; Fibril ([4]; Fig S10 panel E): 1
QCKIKQII | 301 | 2.479 | 2.479 | 301 kcps | 2.479 | 2.479 | 11 | 9.183 mV | 11 mV | 1 | 1 | 1 | 1 | 1 | 1 |  | 
